From PMC6934184, “Selective DNA-PKcs inhibition extends the therapeutic index of localized radiotherapy and chemotherapy” (The Journal of Clinical Investigation, 2019)

Target: T1, EPHA4 (Homo sapiens, UniProt P54764)
T1 construct: purchased Thermo Fisher Scientific (Life Technologies) SelectScreen
Experiment: SelectScreen Z'LYTE
Assay type: biochemical
In short: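 Percent values come from Thermo SelectScreen profiling of NU5455, combining activity and binding assays. CSF1R was run in Z'LYTE format at Km app ATP, and CAMK1 in Adapta format with ATP listed at 10.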

T1 sequence (P54764 20-986): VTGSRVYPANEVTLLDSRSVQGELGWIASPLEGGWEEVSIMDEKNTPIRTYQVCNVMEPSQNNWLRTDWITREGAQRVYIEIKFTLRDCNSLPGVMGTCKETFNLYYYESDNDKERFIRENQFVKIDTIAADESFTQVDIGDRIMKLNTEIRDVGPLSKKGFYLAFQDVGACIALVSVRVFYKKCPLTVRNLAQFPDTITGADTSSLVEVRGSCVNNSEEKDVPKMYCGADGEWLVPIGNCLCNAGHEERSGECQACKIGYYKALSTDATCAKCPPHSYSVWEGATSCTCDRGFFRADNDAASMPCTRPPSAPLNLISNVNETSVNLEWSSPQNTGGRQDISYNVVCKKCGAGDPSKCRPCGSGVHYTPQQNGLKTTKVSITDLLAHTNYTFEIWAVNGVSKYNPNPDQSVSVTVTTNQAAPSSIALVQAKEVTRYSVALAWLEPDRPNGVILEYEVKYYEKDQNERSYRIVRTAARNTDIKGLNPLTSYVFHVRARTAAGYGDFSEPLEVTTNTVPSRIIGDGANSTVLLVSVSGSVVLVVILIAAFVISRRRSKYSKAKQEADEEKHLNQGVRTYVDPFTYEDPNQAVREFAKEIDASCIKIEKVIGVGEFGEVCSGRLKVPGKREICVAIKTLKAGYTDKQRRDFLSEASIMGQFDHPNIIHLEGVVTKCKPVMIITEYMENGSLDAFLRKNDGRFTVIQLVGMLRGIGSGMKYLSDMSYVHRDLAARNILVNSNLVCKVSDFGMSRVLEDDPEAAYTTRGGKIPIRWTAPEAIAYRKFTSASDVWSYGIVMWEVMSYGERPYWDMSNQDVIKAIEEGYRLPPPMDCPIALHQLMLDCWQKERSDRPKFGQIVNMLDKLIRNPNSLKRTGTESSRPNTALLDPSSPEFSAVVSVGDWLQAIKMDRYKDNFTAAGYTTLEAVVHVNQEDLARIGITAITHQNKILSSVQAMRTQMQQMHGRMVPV

CN(C(=O)CN1CCOCC1)c1ccc2sc3c(-c4cccc5c(=O)cc(N6CC7CCC(C6)O7)oc45)cccc3c2c1 [NU5455]
inhibition at 1 µM: 2.9%
